The subject of test [1] is U87-MG cells. Description: Survival of mice injected with U87-MG cells. The test is classed as in vivo. To be noted: versus DMSO.
The next test concerns Twist. Description: Expression of Twist in U87-MG and MDA-MB-231 cells. The test is classed as cell-based, human. Particulars: U87-MG and MDA-MB-231, 24 hours. As to the method: RNA isolation and real-time polymerase chain reaction were performed as described previously (Jung J E, et al. FASEB J. 19, 1296-1298 (2005)). Primer specific for human-derived Bcl-XL, Bcl-2, Twist, and GADPH genes were mixed with QuantiFast SYBR Green PCR master mix, and each gene was amplified using the Applied Biosystems 7300 real-time PCR system to compare the expression level.

In the next test the test system is caspase-3 and PARP. Description: Western blot of caspase-3 and PARP. The test is classed as cell-based, human. As to the method:
(§1) Western blot analysis was performed (Jung J E, et al. FASEB J. 19, 1296-1298 (2005)). The cells were washed two times with PBS and suspended in the lysate (50 mM Tris-HCl, pH 7.4, 350 mM NaCl, 1% Triton X-100, 0.5% Nonidet P-40, 10% glycerol, 0.1% SDS, 1 mM EDTA, 1 mM EGTA, 1 mM Na3VO4, 1 mM PMSF, protease and phosphorylation inhibitor) and the cell membrane and nuclear membrane were crushed to lyse the cells. The insoluble protein fraction was removed by centrifugation, and the supernatant was mixed with SDS electrophoresis buffer and electrophoresis (SDS-PAGE) was performed to detect the protein with the desired antibody and to confirm the protein expression level.

Another test deals with MMP-2. Description: Activity of MMP-2 in U87-MG and MDA-MB-231 cells. Particulars: U87-MG and MDA-MB-231, 24 hours. The test is classed as cell-based, human.
Test [2] relates to MDA-MB-231 cells. Description: Wound healing assay, MDA-MB-231. The test is classed as cell-based, human. Particulars: MDA-MB-231, 24 hours. The procedure: Wound healing assay was performed as previously described (Jung J E, et al. FASEB J. 19, 1296-1298 (2005)). The respective cells were dispensed into a 12-well plate (U87-MG: 5×10^5 cells/ml; MDA-MB-231: 3×10^5 cells/ml) and cultured until the cells proliferated 90% or more. Cells scraped off from the plate with the tip of the pipette were washed two times with PBS. After 24 hours, the proliferation (invasion) of cells at the part from which the cells were had been removed was observed under a microscope, and images were taken.

Test [3] has as its system U87-MG cells. Description: Matrigel invasion assay, U87-MG. Format: cell-based, human. Particulars: 24 hours, versus DMSO. The procedure: The growth factor-reduced Matrigel was diluted with a serum-free culture solution at a 1:3 ratio, transferred to a 24-well plate, and solidified at 37° C. for 5 hours. The cells were placed in a culture solution containing 1% serum and added to the solidified Matrigel, 600 μl of a culture solution containing 10% serum to which fibronectin was added at a concentration of […] was added thereto, and the cells were cultured for 24 hours. Thereafter, the cells were fixed and stained by adding Diffquick solution thereto and then observed under a Leica Application Suite microscope, and images were taken.

In test [4] the target is T1, STAT3 (Homo sapiens, UniProt P40763). Description: Western blot in human malignant breast cancer cell lines. Format: cell-based. Set-up: endogenous in cells; host or cells: L540, HDLM-2, U87-MG, MDA-MB-231, further human glioblastoma and breast cancer lines. As to the method: as §1
(In western blotting, separated proteins are transferred to a membrane and probed.)

A further test concerns STAT92E. Description: Drosophila cell luciferase assay (10XSTAT92E-luciferase reporter). The test is classed as cell-based. To be noted: compared with DMSO-treated group, concentration-dependent. The procedure: Drosophila cells (S2-NP, 24×3) used in the experiment were cultured as previously described (Kim B H, et al. Mol Cancer Ther. 7, 2672-2680 (2008)). S2-NP (Drosophila Schneider cell) cells were Drosophila-derived macrophage-like cells and were cultured in Schneider's medium. 24×3 cells were cell lines stably expressed by inserting 10XSTAT92E-luciferase and PolIII-Renilla luciferase-labeled plasmid DNA as reporter constructs into S2-NP cells and were cultured in a medium prepared by adding […] of geneticin to the same medium as that for S2-NP. S2-NP cells in which unpaired (upd) or HOPT^Tum-l as a ligand was expressed and 24×3 cells constructed with reporter constructs were mixed at a constant ratio and cultured for 24 hours in the presence of a compound, the expression level of STAT92E was measured using a luminometer, and the inhibition effect was compared with that of the DMSO-treated group.

Test [5] has as its target T1, STAT3. Description: STAT3 activity in various human cancer cell lines with excessively activated or IL-6-induced STAT3. The test is classed as cell-based. Further details: endogenous in cells; host or cells: L540, HDLM-2, U87-MG, MDA-MB-231, further human glioblastoma and breast cancer lines. The procedure: The human cancer cell lines used in the experiment were U87-MG (human malignant glioblastoma) and MDA-MB-231 (human malignant breast cancer) cell lines, and various kinds of human-derived blood and solid cancer cells including these human cancer cell lines were cultured as previously described (Jung J E, et al. FASEB J. 19, 1296-1298 (2005)). The human Hodgkin lymphoma cancer cell lines L540 and HLDM-2 used in the experiment were obtained from the German Collection of Microorganism and Cell Cultures (DSMZ, Germany) and cultured using RPMI 1640 medium containing 20% FBS in a 5% CO2 incubator at a temperature of 37° C.
as §1

Test [6] concerns MDA-MB-231 cells. Description: Human tumor cell xenograft, MDA-MB-231. The test is classed as in vivo, BALB/c nude mice. To be noted: MDA-MB-231 xenograft, injected directly into the tumor, versus DMSO. As to the method: Male Nude Mouse (BALB/cAnNCrj-nu/nu) was purchased from Charles River Japan Inc. (Shin-Yokohama, Japan). The mouse was bred in a clean room in which the temperature and humidity were constantly controlled. The breeding process was carried out according to the method described in the manual for maintenance of laboratory animals in Seoul National University. U87-MG cells or MDA-MB-231 cells were diluted with PBS, suspended in 100 μl of Matrigel at 25% concentration, and injected into the back of mouse and bred for 6 to 10 weeks. Human tumor growth was measured every other day using a vernier caliper from 2 weeks after cell injection. With regard to the degree of inhibition of human tumor cell formation, 40 μM of ODZ10117 was directly injected into the human tumor on days 0, 3, and 5 from week 4 of tumor cell injection. On the 7th day, the mouse was sacrificed to separate the tumor, and the tumor cell inhibitory efficacy of the drug was measured by being compared with that of the control group treated with 1% DMSO.

SMILES strings stand for the structures.

Results on one molecule are retold here after patent US20200354327A1, “COMPOUND HAVING STAT3 INHIBITORY ACTIVITY AND USE THEREOF” (CYTUS H&B CO., LTD., priority 2017, published 2020).

T1 sequence (P40763 whole entry): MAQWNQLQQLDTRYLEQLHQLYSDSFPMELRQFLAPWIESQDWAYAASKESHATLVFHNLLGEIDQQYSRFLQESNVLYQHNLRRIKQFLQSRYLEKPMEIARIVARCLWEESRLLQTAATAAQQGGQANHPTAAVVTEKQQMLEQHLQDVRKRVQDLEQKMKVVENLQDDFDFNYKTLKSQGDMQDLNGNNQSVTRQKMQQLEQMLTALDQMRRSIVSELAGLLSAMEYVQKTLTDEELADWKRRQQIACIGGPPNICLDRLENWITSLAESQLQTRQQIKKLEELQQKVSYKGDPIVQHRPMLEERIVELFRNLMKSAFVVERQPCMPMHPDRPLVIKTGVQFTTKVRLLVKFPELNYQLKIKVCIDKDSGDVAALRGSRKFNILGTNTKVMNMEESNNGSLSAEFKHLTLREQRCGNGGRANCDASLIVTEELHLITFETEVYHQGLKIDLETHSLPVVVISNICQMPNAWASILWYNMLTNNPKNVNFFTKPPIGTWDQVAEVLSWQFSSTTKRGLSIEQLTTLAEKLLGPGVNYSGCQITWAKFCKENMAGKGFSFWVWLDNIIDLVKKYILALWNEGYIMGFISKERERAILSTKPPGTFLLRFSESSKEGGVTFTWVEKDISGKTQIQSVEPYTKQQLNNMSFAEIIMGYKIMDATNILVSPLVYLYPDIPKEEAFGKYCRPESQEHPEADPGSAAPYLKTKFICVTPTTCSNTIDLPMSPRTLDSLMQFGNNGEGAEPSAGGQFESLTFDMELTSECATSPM

On to `Clc1ccc(OCc2noc(C(Cl)(Cl)Cl)n2)c(Cl)c1` [ODZ10117, 3-(2,4-dichloro-phenoxymethyl)-5-trichloromethyl-[1,2,4]oxadiazole], for which the survival time result with U87-MG cells [1] is on record as “survival time increased”. In addition, the “expression of Twist” value in the test with Twist was “significantly decreased”. In the test with caspase-3 and PARP, the “amount of fragmented caspase-3 and PARP proteins” value is “significantly increased the amount of fragmented caspase-3 and PARP proteins”. Also, the “activity of MMP-2” value in the test with MMP-2 was “significantly decreased”. Moreover, the cell migration entry in the test with MDA-MB-231 cells [2] was “significantly inhibited the migration of these cells”. The cell invasion entry with U87-MG cells [3] is “significantly decreased cell invasion in both the two cell lines”. At STAT3 [4], the “STAT3 inhibitory efficacy compared with napabucasin” value was “STAT3 inhibitory efficacy similar to that of napabucasin at high concentrations”, the “phosphorylation of tyrosine 705 of STAT3” value is reported as “inhibited the phosphorylation of tyrosine 705 of STAT3 in human malignant breast cancer cell lines in a concentration-dependent manner” and the “time to complete inhibition of phosphorylation of STAT3 after treatment” value was not above 2 h. At STAT3 [4] (versus NSC628869 and NSC74859), the “STAT3 inhibitory efficacy compared with known inhibitors” value is “superior STAT3 inhibitory efficacy to NSC628869 and NSC74859”. Also, the “promoter activity of STAT92E” value in the test on STAT92E is listed as “significantly decreased the promoter activity of STAT92E”. The “activity of STAT3 induced by IL-6” value on STAT3 [5] (IL-6 induced) is reported as “efficiently inhibited the activity of STAT3 induced by IL-6”. Also, the “activity of STAT3” value at STAT3 [5] (various human cancer cell lines in which STAT3 was excessively activated) is recorded as “inhibited the activity of STAT3 in all kinds of cell lines used in the experiment”. For the same molecule, the “activity of STAT3 induced by IL-6, compared with known inhibitors” value on STAT3 [5] (versus NSC628869 and NSC74859) was “more efficiently inhibited the activity of STAT3 induced by IL-6 than NSC628869 and NSC74859”. Besides, the tumor growth result with MDA-MB-231 cells [6] was “significantly inhibited tumor growth”.
